Measured values as given in patent US11472812B2, “Anti-cancer compounds targeting Ral GTPases and methods of using the same” (The Regents of the University of Colorado, a body corporate, priority 2014, dated 2022).
“Also recorded” adds a separate entry of the source.

Experiments:
[1] = system: H2122 human lung cancer cells; assay: Cellular uptake, LC/MS-MS of cell lysates; format: in vitro ADME; details: 10 μM, 1-60 min
Experimental: To quantitate how well the test compounds get into cells, H2122 human lung cancer cells were seeded at 3×10^5 cells per well in 6-well plates and let sit for 16 h. Compounds (10 μM) were individually dosed in triplicate; cells were then collected into 500 μl ice-cold ACN:MeOH:H2O (1:1:1) at different time points (1, 5, 15, 30 and 60 min). Drug concentrations in cell lysates were then determined using LC/MS-MS methods as described with respect to the pharmacokinetic and pharmacodynamic studies in mice, described in detail in Example 5, below.

[2] = system: H2122 human lung cancer cells; assay: H2122 xenograft tumor growth; format: in vivo, nude mice; details: i.p. daily except weekends, initiated 24 h after inoculation; RBC8 50 mg/kg/d; BQU57 and BQU85 5, 10, 20, and 50 mg/kg/d
Experimental: We next determined compound entry into tumor tissue. To do so, athymic nude mice (Ncr nu/nu; National Cancer Institute, Fredrick, Md.) were received at 5 to 6 weeks of age and were allowed to acclimate for 2 weeks in sterile micro isolator cages with constant temperature and humidity. Mice had free access to food and water. H2122 cells in log-phase growth were harvested on the day of use. Cells were suspended in un-supplemented RPMI 1640 medium and 0.1 mL (2×10^5 cells) was injected s.c. four sites per mice. For H358 xenografts, cells (5×10^6) were mixed with matrigel (20% final concentration) and 0.1 mL was inoculated s.c. per site. After cell inoculation, mice were monitored daily, weighed twice weekly and caliper measurements begun when tumors visible. Tumor volume was calculated by (L×W2)/2, where L is longer measurement of tumor and W is the smaller tumor measurement. Drug treatment started the day after inoculation. Compounds were dissolved in DMSO and injected i.p. daily except weekends at 10/20/50 mg/kg. […] The effect of the Ral inhibitors on xenograft tumor growth was then tested in nude mice. Mice were inoculated subcutaneously with H2122 human lung cancer cells and treated intraperitoneally with 50 mg/kg/d (except weekends) of RBC8 24 h post inoculation.

Cn1nc(-c2ccccc2)c2c1OC(N)=C(C#N)C2c1ccc(OC(F)(F)F)cc1 (centres unmarked) [BQU85, 6-amino-1-methyl-3-phenyl-4-(4-(trifluoromethoxy)phenyl)-1,4-dihydropyrano[2,3-c]pyrazole-5-carbonitrile]
cellular uptake [1]: readily get into cells | xenograft tumor growth inhibition [2]: dose-dependent growth inhibition effects were observed; also recorded: inhibited xenograft tumor growth
